According to the supplement of paper PMC10307832:

Key:
Assay in all cases: relative viability (nuclei count vs DMSO), 5 days (fraction); higher = more cells survive
[1] = compound: C1CNCCC1C2=CC(=NN2)C3=CC=NC=C3 + CC(C)C[C@H](NC(=O)[C@H](Cc1ccccc1)NC(=O)c1cnccn1)B(O)O [Bortezomib] (partner 0.002 µM)
Outline: (§1)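 Each reported value is a median over duplicate plates. It expresses relative viability: treated-well nuclei count divided by vehicle-well nuclei count. Lung cancer cell lines in 1536-well plates were dosed by pin tool a day after seeding, alone with one drug or with a fixed anchor-drug dose plus five library-drug doses (not always all listed) in √10 steps, and nuclei were counted after 5 days.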

[2] = compound: C[C@@H](N)c1ccc(C(=O)Nc2ccnc3[nH]ccc23)cc1 + CC(C)C[C@H](NC(=O)[C@H](Cc1ccccc1)NC(=O)c1cnccn1)B(O)O [Bortezomib] (partner 0.002 µM)
Outline: as §1

[3] = compound: C[C@@H](N)c1ccc(C(=O)Nc2ccnc3[nH]ccc23)cc1 + C[C@@H](Oc1cc(-c2cnn(C3CCNCC3)c2)cnc1N)c1c(Cl)ccc(F)c1Cl [Crizotinib] (partner 1 µM)
Outline: as §1

[4] = compound: C[C@@H](N)c1ccc(C(=O)Nc2ccnc3[nH]ccc23)cc1 + Cc1nc(Nc2ncc(C(=O)Nc3c(C)cccc3Cl)s2)cc(N2CCN(CCO)CC2)n1 [Dasatinib] (partner 0.075 µM)
Outline: as §1

| Cell Line | relative viability ([1]; first compound 0.08 µM) | relative viability ([1]; first compound 0.8 µM) | relative viability ([1]; first compound 2.53 µM) | relative viability ([1]; first compound 8 µM) | relative viability ([2]; first compound 0.04 µM) | relative viability ([2]; first compound 0.1265 µM) | relative viability ([2]; first compound 0.4 µM) | relative viability ([2]; first compound 1.265 µM) | relative viability ([2]; first compound 4 µM) | relative viability ([3]; first compound 0.04 µM) | relative viability ([3]; first compound 0.1265 µM) | relative viability ([3]; first compound 0.4 µM) | relative viability ([3]; first compound 1.265 µM) | relative viability ([3]; first compound 4 µM) | relative viability ([4]; first compound 0.04 µM) | relative viability ([4]; first compound 0.1265 µM) | relative viability ([4]; first compound 0.4 µM) | relative viability ([4]; first compound 1.265 µM) | relative viability ([4]; first compound 4 µM) |
| --- | --- | --- | --- | --- | --- | --- | --- | --- | --- | --- | --- | --- | --- | --- | --- | --- | --- | --- | --- |
| LCLC-103H | 1.06 | 0.936 | 1.3 | 1.12 | 1.13 | 0.819 | 1.2 | 0.915 | 0.856 | 1.19 | 1.02 | 1.13 | 1.01 | 0.903 | 0.363 | 0.506 | 0.474 | 0.285 | 0.279 |
| SW 1573 | 0.75 | 1.22 | 1.11 | 1.12 | 1.08 | 1.01 | 0.939 | 0.968 | 0.7 | 0.792 | 0.816 | 0.777 | 0.65 | 0.765 | 0.405 | 0.592 | 0.433 | 0.259 | 0.231 |
| NCI-H2405 | 0.94 | 0.658 | 1.02 | 1 | 0.895 | 0.973 | 0.903 | 0.274 | 0.491 | 0.689 | 0.904 | 0.868 | 0.68 | 0.387 | 0.186 | 0.2 | 0.187 | 0.19 | 0.162 |
| NCI-H2087 | 0.866 | 1.01 | 0.728 | 0.763 | 0.49 | 0.783 | 0.719 | 0.499 | 0.686 | 0.824 | 0.538 | 0.581 | 0.788 | 0.386 | 0.956 | 0.912 | 0.869 | – | 0.65 |
| NCI-H460 | 0.892 | 1.49 | 1.06 | 1.12 | 0.996 | 1.15 | 1.11 | 1.17 | 1.09 | 1.1 | 0.943 | 0.966 | 0.516 | 0.603 | 0.463 | 0.525 | 0.451 | 0.27 | 0.337 |
| LOU-NH91 | 0.52 | 0.503 | 0.484 | 0.498 | 0.504 | 0.56 | 0.515 | 0.468 | 0.429 | 0.691 | 0.727 | 0.691 | 0.668 | 0.635 | 0.425 | 0.571 | 0.527 | 0.492 | 0.394 |
| NCI-H1651 | 0.907 | 0.923 | 1.02 | 0.949 | 1.02 | 0.998 | 0.997 | 0.795 | 0.934 | 0.921 | 0.822 | 0.916 | 0.898 | 0.837 | 0.389 | 0.429 | 0.414 | 0.288 | 0.41 |
| NCI-H441 | – | 0.764 | 0.609 | 0.269 | 0.599 | 0.472 | 0.693 | 0.57 | 0.449 | 0.807 | 0.764 | 0.749 | 0.948 | 0.565 | 0.671 | 0.739 | 0.867 | – | 0.667 |
